Experimental findings from PubChem BioAssay (NCI) are described below.

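Protocol summary: plate cells (96-well), add compound at 5 concentrations, incubate 48 h, interpolate endpoints linearly. TGI is the concentration that stops growth completely.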 Some results are limits rather than exact numbers.

What all share (assay): growth of human tumour cells (NCI), 48 h
Experiment [1] has as its system 786-0 renal.
The test system of experiment [2] is ACHN renal.
In experiment [3] the test system is EKVX NSCLC.
The subject of experiment [4] is HCT-116 colon.
Experiment [5] concerns HCT-15 colon.
In experiment [6] the test system is M14 melanoma.
The subject of experiment [7] is MOLT-4 leukemia.
Experiment [8] concerns NCI/ADR-RES ovarian.
The test system of experiment [9] is OVCAR-3 ovarian.
In experiment [10] the test system is OVCAR-8 ovarian.
The subject of experiment [11] is SK-MEL-28 melanoma.
In experiment [12] the test system is SN12C renal.
Experiment [13] has as its system SW-620 colon.
The subject of experiment [14] is T-47D breast.
Experiment [15] has as its system U251 CNS.
Experiment [16] deals with UACC-257 melanoma.
For experiment [17], the system named is UO-31 renal.

Take `COc1cc2c(cc1OCCCCN1C(=O)c3cccc4cccc(c34)C1=O)N=C[C@@H]1CCCN1C2=O`: the TGI was 9.73 µM in [1]; 5.2 µM in [2]; 44.6 µM in experiment [3]; 14 µM in experiment [4]; 14.8 µM in experiment [5]; above 34.3 µM in [6]. For the same compound, the TGI was above 100 µM in experiment [7]; 28.4 µM in [8]; 10.4 µM in experiment [9]; 82.8 µM in experiment [10]; 38.2 µM in [11]; 17.7 µM in [12]. Further, the TGI in experiment [13] is above 38.8 µM; in [14] it was 37.1 µM; in experiment [15] it was above 33.9 µM; in [16] it was 37.7 µM; in experiment [17], 3.4 µM.
On to `CC(C)=CCC/C(=C/CC/C(=C\CCc1ccoc1)C(=O)O)C(=O)O`, for which the TGI in [1], in experiment [2], in experiment [3], in [4], in [5] and in experiment [6] was above 100 µM each time. In addition, the TGI in experiment [7], in [8], in experiment [9], in experiment [10], in [11] and in experiment [12] was above 100 µM throughout. For the same compound, the TGI in experiment [13], in [14], in experiment [15], in experiment [16] and in [17] was above 100 µM in each case.
Consider `Cc1ccc(N(C(=O)Nc2ccccc2)C2=NCC(C)S2)cc1C` (configuration not stated), for which the TGI is 46.6 µM in experiment [1]; above 100 µM in experiment [2]; 72.1 µM in [3]; 46.5 µM in experiment [4]; 44.5 µM in experiment [5]; 28.4 µM in [6]. For the same compound, the TGI was above 10 µM in experiment [7]; 52.4 µM in [8]; 32 µM in experiment [9]; 91.2 µM in experiment [10]; 31.2 µM in experiment [11]; 32 µM in experiment [12]. Besides, the TGI is 62.9 µM in experiment [13]; above 100 µM in experiment [14]; 51.3 µM in [15]; above 10 µM in experiment [16]; 80.7 µM in [17].
For the compound `Cc1cc2c(cc1Cl)S(=O)(=O)OC(c1ccc([N+](=O)[O-])cc1)=N2`, the TGI in experiment [1], in experiment [2], in [3], in experiment [4], in [5] and in [6] was above 100 µM each time. Further, the TGI in experiment [7], in experiment [8], in [9], in [10], in experiment [11] and in experiment [12] was above 100 µM each time. Moreover, the TGI in [13], in [14], in experiment [15], in experiment [16] and in experiment [17] was above 100 µM each time.
For `CCOC(=O)c1cn2c(n1)sc1c(Cl)c(Cl)ccc12`, the TGI in experiment [1] is 31.2 µM; in experiment [2], above 100 µM; in [3], above 100 µM; in [4], 33 µM; in [5], above 100 µM; in experiment [6] it was above 96.3 µM. Moreover, the TGI in experiment [7] was above 40 µM; in [8], 97.9 µM; in experiment [9], above 58.1 µM; in [10], above 66 µM; in experiment [11], above 100 µM; in experiment [12] it was 39 µM. The TGI in experiment [13] was above 100 µM; in [14] it was above 90.5 µM; in experiment [15] it was above 100 µM; in [16], above 100 µM; in [17] it was above 100 µM.
In the case of `O=C(c1ccc(Cl)cc1)N(C(=O)N1CCC(c2ccccc2)CC1)c1ccccc1`, the TGI was above 100 µM in experiment [1]; above 100 µM in experiment [2]; 69 µM in experiment [3]; above 100 µM in experiment [4]; above 100 µM in [5]; 88.2 µM in experiment [6]. Besides, the TGI was 57.1 µM in experiment [7]; above 100 µM in experiment [8]; above 100 µM in experiment [9]; above 100 µM in [10]; above 100 µM in [11]; above 100 µM in [12]. The TGI in experiment [13] is above 100 µM; in [14] it was 49.3 µM; in experiment [15], above 100 µM; in experiment [16] it was 83 µM; in experiment [17], 98.7 µM.
In the case of `COC(=O)c1sc(=S)sc1SCc1ccc(CSc2sc(=S)sc2C(=O)OC)cc1`, the TGI in [1], in experiment [2], in experiment [3], in experiment [4], in experiment [5] and in experiment [6] was above 100 µM throughout. The TGI in [7], in experiment [8], in [9], in experiment [10], in [11] and in experiment [12] was above 100 µM in each case. For the same compound, the TGI in [13], in [14], in [15], in experiment [16] and in experiment [17] was above 100 µM throughout.
Consider `CCn1c(SCC(=O)NNC(=S)Nc2ccc([N+](=O)[O-])cc2)nc2ccccc2c1=O`, for which the TGI in [1], in experiment [2], in experiment [3], in experiment [4], in experiment [5] and in experiment [6] was above 100 µM throughout. Also, the TGI was 65.8 µM in experiment [7]; above 100 µM in experiment [8]; above 100 µM in experiment [9]; above 100 µM in [10]; above 100 µM in experiment [11]; above 100 µM in experiment [12]. Also, the TGI in experiment [13], in experiment [14], in experiment [15], in experiment [16] and in experiment [17] was above 100 µM throughout.
Regarding `O=C1CSC(c2ccc([N+](=O)[O-])cc2)N1c1ccc(-n2c(-c3ccccc3)nc3ccccc3c2=O)cc1` (configuration not stated), the TGI in [1], in experiment [2], in experiment [3], in experiment [4], in [5] and in experiment [6] was above 100 µM throughout. Besides, the TGI in experiment [7], in experiment [8], in [9], in [10], in experiment [11] and in experiment [12] was above 100 µM in each case. Besides, the TGI in experiment [13] is above 100 µM; in experiment [14] it was above 100 µM; in experiment [15], above 100 µM; in experiment [16] it was above 100 µM; in experiment [17] it was 29.3 µM.
In the case of `CC(C)OCC1CC(CC(=O)Nc2nncs2)C(=O)O1` (configuration not stated), the TGI in experiment [1], in experiment [2], in experiment [3], in experiment [4], in experiment [5] and in [6] was above 100 µM throughout. Also, the TGI in [7], in experiment [8], in [9], in experiment [10], in experiment [11] and in experiment [12] was above 100 µM throughout. The TGI in [13], in experiment [14], in [15], in [16] and in experiment [17] was above 100 µM each time.
Regarding `CN(C)C(=S)/N=c1\ssc(=S)n1Cc1cccnc1`, the TGI in experiment [1] was above 100 µM; in experiment [2] it was above 100 µM; in [3], above 100 µM; in [4], above 100 µM; in [5], above 75 µM; in experiment [6], 59.2 µM. The TGI in [7] was 98.5 µM; in experiment [8] it was 4.51 µM; in [9] it was 9.47 µM; in experiment [10] it was above 100 µM; in experiment [11], above 100 µM; in experiment [12], above 100 µM. The TGI is above 53.2 µM in experiment [13]; above 100 µM in experiment [14]; above 94.9 µM in experiment [15]; above 95.5 µM in [16]; above 100 µM in [17].
As for `CC(=O)Oc1ccc(-c2cc3ccccc3oc2=O)cc1`, the TGI in experiment [1], in [2], in experiment [3], in experiment [4], in experiment [5] and in experiment [6] was above 100 µM throughout. The TGI was above 100 µM in [7]; above 100 µM in experiment [8]; 70.9 µM in [9]; above 100 µM in experiment [10]; above 100 µM in experiment [11]; above 100 µM in [12]. Further, the TGI in [13], in experiment [14], in experiment [15], in experiment [16] and in [17] was above 100 µM each time.
For the compound `Cc1ccc(NC2=CC(=O)C(NO)c3ccccc32)cc1` (configuration not stated), the TGI came out at 17.4 µM in experiment [1]; 12.5 µM in [2]; 8.57 µM in experiment [3]; 8.77 µM in experiment [4]; 10.4 µM in experiment [5]; 11.4 µM in experiment [6]. Also, the TGI came out at 6.23 µM in experiment [7]; 5.81 µM in [8]; 5.57 µM in [9]; 4.41 µM in [10]; 29.5 µM in experiment [11]; 10.5 µM in experiment [12]. The TGI was above 100 µM in experiment [13]; 7.63 µM in experiment [14]; 11.9 µM in experiment [15]; 3.84 µM in experiment [16]; 12.2 µM in experiment [17].
On to `CC(C)(C)OC(=O)N1CCC(C(=O)O)CC1`, for which the TGI in experiment [1], in [2], in experiment [3], in experiment [4], in [5] and in experiment [6] was above 100 µM each time. The TGI in experiment [7], in experiment [8], in experiment [9], in experiment [10], in [11] and in experiment [12] was above 100 µM each time. Moreover, the TGI in [13], in experiment [14], in [15], in experiment [16] and in experiment [17] was above 100 µM throughout.
For `CN(C)CCN(C)c1ccc2c(=O)n(CCN(C)C)c(=O)n3c4ccccc4c(=O)c1c23`, the TGI in [1] was determined as 10.2 µM; in [2] it was 0.849 µM; in experiment [3], 6.92 µM; in experiment [4], 3.14 µM; in experiment [5], 10.8 µM; in experiment [6], 6.68 µM. Also, the TGI came out at 0.135 µM in [7]; 16.9 µM in experiment [8]; 12.6 µM in experiment [9]; 7.15 µM in experiment [10]; 6.81 µM in [11]; 2.64 µM in experiment [12]. Also, the TGI in experiment [13] is 8.34 µM; in experiment [14], 9.77 µM; in [15], 8.93 µM; in experiment [16], 4.73 µM; in experiment [17] it was 2.62 µM.
On to `COC(=O)CNS(=O)(=O)c1ccc(-c2c3nc(c(-c4ccc(S(=O)(=O)NCC(=O)OC)cc4)c4ccc([nH]4)c(-c4ccc(S(=O)(=O)NCC(=O)OC)cc4)c4nc(c(-c5ccc(S(=O)(=O)NCC(=O)OC)cc5)c5ccc2[nH]5)C=C4)C=C3)cc1`, for which the TGI in experiment [1] was above 100 µM; in experiment [2] it was above 100 µM; in [3], above 100 µM; in experiment [4], above 100 µM; in experiment [5], above 100 µM; in experiment [6] it was 41.9 µM. The TGI in [7], in experiment [8], in [9], in experiment [10], in [11] and in [12] was above 100 µM each time. The TGI in experiment [13], in experiment [14], in experiment [15], in experiment [16] and in experiment [17] was above 100 µM each time.
